Data: article PMC8748916, “Microbial enzymes induce colitis by reactivating triclosan in the mouse gastrointestinal tract” (Nature Communications, 2022)
Where “and” joins values, the source holds several entries; their conditions need not be identical. Identical values can stand only once.

Experiments:
[1] = biological target: C. perfringens GUS (Clostridium perfringens, UniProt Q8XP19); assay: biochemical
[2] = system: F. prausnitzii 2-L1 (Fp2-L1) GUS; assay: In vitro IC50 assay (TCS-G to TCS conversion, HPLC); type: biochemical; conditions: for F. prausnitzii 2-L1 GUS %inhibition: Fig. 4b, triplicate
[3] = biological target: R. gnavus 3 GUS (Mediterraneibacter gnavus, UniProt Z9UC37PQH0); assay: as above; type: biochemical
Chain of R. gnavus 3 GUS (Z9UC37PQH0 1-754): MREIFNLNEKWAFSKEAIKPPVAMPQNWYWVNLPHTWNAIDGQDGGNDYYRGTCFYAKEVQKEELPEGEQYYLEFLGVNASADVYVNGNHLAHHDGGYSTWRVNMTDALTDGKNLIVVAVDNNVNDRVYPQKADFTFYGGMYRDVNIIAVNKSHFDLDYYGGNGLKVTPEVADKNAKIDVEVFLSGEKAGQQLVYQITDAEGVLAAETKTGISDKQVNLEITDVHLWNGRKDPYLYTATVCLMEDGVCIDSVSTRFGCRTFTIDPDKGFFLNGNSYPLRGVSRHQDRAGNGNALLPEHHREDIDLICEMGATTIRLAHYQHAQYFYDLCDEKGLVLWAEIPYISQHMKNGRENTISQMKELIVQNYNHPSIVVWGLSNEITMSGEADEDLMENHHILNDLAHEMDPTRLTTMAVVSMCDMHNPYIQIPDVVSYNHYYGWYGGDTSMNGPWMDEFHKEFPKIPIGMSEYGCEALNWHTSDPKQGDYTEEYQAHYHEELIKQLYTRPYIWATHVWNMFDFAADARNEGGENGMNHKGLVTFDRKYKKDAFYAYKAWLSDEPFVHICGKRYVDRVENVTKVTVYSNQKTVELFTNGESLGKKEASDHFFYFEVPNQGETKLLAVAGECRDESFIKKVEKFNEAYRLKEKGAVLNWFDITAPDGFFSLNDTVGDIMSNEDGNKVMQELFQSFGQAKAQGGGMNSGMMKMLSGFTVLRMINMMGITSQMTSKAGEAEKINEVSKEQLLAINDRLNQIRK

[4] = system: enzymes extracted from human fecal samples; assay: In fimo inhibition assay (TCS-G processing by human fecal extracts); type: biochemical; conditions: for % Inhibition: Fig. 4d, triplicate
Method: Fecal extracts were prepared and proteomic analysis was performed exactly as previously described. In total, 10 g of frozen human fecal sample was thawed and added to 25 mL extraction buffer (25 mM HEPES, 25 mM NaCl pH 6.5 with Roche Complete protease inhibitor tablet) and 0.5 g autoclaved garnet beads. The mixture was vortexed until homogenous and centrifuged at low speed (300 × g for 5 min at 4 °C). The supernatant was decanted. In all, 25 mL buffer was added to the pellet and the vortex and centrifugation steps repeated. The supernatants from these steps were then combined and centrifuged at low speed for two more cycles. The resultant supernatant was sonicated twice using 1 s pulses for 1.5 min and the lysate was centrifuged at 17,000 × g for 20 min in a Beckman Coulter J2-HC centrifuge. The decanted lysate was then washed with several exchanges of extraction buffer to remove metabolites and small molecules. Total protein concentration was quantitated using a Bradford assay. The fecal lysate was diluted to 1 mg/mL concentration and snap-frozen in small aliquots.
Reaction mixtures contained 5 µL fecal extract (0.1 mg/mL final), 10 µL TCS-G (200 µM final), 5 µL GUSi (10, 1, or 0.1 µM final), and 30 µL assay buffer (25 mM HEPES, 25 mM NaCl, pH 6.5). Reactions were quenched at 30 min with 50 µL 25% trichloroacetic acid. Samples were centrifuged 20 min at 16,000 × g in a tabletop centrifuge, and the supernatant was analyzed via the same HPLC method described for the catalytic efficiency assay. Controls contained 5 µL buffer in place of GUSi. Inhibition was calculated using Eq. 1.

[5] = system: C57BL/6 mice; assay: Effects of GUSi on gut inflammation in mice not stimulated with DSS; type: in vivo; set-up: TNF (Fig.S12e) / IL-6 (Fig.S12e) / IL-10 (Fig.S12e) / MCP-1 (Fig.S12e): unit not given here
[6] = read-out: C. perfringens GUS % inhibition
[7] = GUSi 1.23457 uM, Fig. 4c, triplicate
[8] = GUSi 3.7037 uM, Fig. 4c, triplicate
[9] = GUSi 11.1111 uM, Fig. 4c, triplicate
[10] = GUSi 33.3333 uM, Fig. 4c, triplicate
[11] = GUSi 100 uM, Fig. 4c, triplicate
[12] = 1 mg/kg GUSi via oral gavage, 3- to 4-week treatment
[13] = cytokine level, individual mice, no DSS
[14] = gene expression, individual mice, no DSS

Chain of C. perfringens GUS (Q8XP19 whole entry, looked up): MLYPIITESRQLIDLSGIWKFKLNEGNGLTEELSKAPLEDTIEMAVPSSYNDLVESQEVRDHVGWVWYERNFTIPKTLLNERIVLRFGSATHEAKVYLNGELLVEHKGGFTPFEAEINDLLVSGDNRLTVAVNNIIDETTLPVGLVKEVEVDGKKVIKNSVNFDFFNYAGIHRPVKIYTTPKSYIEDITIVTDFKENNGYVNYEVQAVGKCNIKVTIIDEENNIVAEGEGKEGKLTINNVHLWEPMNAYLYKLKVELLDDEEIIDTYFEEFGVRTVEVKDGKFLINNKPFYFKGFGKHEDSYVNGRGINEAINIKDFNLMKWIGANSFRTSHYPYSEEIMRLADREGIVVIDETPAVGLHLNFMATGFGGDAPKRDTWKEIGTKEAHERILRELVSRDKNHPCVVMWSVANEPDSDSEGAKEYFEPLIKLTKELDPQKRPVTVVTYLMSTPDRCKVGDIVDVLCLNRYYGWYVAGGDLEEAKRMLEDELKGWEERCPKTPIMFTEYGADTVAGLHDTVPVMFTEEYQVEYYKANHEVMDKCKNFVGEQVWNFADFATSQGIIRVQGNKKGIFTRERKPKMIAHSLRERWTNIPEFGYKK

**Q.** What does the source list for C1CCc2c(c(N3CCOCC3)nc3sc4c(N5CCNCC5)nnnc4c23)C1 [GUSi, UNC10201652]?
**A.** IC50 [1]: 640 ± 40 nM; inhibition at 1.23457 µM [1, 6]: 78%; inhibition at 3.7037 µM [1, 6]: 93.9%; inhibition at 11.1111 µM [1, 6]: 97.7%; inhibition at 33.3333 µM [1, 6]: 98.6%; inhibition at 100 µM [1, 6]: 99.4%; F. prausnitzii 2-L1 GUS %inhibition ([2]; GUSi 0.0457247 uM): 0% and 0.2667%; F. prausnitzii 2-L1 GUS %inhibition ([2]; GUSi 0.137174 uM): 0% and 0.1263%; F. prausnitzii 2-L1 GUS %inhibition ([2]; GUSi 0.411523 uM): 0%; F. prausnitzii 2-L1 GUS %inhibition ([2]; GUSi 3.7037 uM): 74.6624% and 62.5632% and 66.5428%; F. prausnitzii 2-L1 GUS %inhibition ([2]; GUSi 11.1111 uM): 93.6484% and 88.7563% and 88.6045%; F. prausnitzii 2-L1 GUS %inhibition ([2]; GUSi 33.3333 uM): 99.4351% and 98.0067% and 94.7151%; F. prausnitzii 2-L1 GUS %inhibition ([2]; GUSi 100 uM): 100.964% and 99.7754% and 96.4492%; IC50 ([2]; conversion of TCS-G (200 µM) to TCS, Loop 1 GUS): 2800 ± 100 nM; R. gnavus 3 GUS % inhibition ([3]; GUSi 0.0457247 uM, Fig. 4c, triplicate): -1.753% and -3.75% and 4.591%; R. gnavus 3 GUS % inhibition ([3]; GUSi 0.137174 uM, Fig. 4c, triplicate): 0.1348% and -1.9775% and 2.5447%; R. gnavus 3 GUS % inhibition [3, 7]: 15.6836% and 27.3384%; inhibition at 1.23457 µM [3, 7]: 17.8%; R. gnavus 3 GUS % inhibition [3, 8]: 45.7722% and 58.3391%; inhibition at 3.7037 µM [3, 8]: 46.7%; R. gnavus 3 GUS % inhibition [3, 9]: 62.2571% and 74.9484%; inhibition at 11.1111 µM [3, 9]: 64.9%; R. gnavus 3 GUS % inhibition [3, 10]: 76.969% and 90.9388%; inhibition at 33.3333 µM [3, 10]: 79.3%; R. gnavus 3 GUS % inhibition [3, 11]: 87.2656% and 101.29%; inhibition at 100 µM [3, 11]: 89.5%; IC50 ([3]; conversion of TCS-G (200 µM) to TCS, FMN-binding GUS): 3700 ± 500 nM; effect on TCS-G processing by fecal enzyme mixtures ex vivo ([4]; human fecal extracts, GUSi 10, 1 or 0.1 µM): inhibited TCS-G processing; % Inhibition ([4]; human fecal sample F3, 0.1 uM GUSi): 26.0315% and 22.661% and 26.9159%; % Inhibition ([4]; human fecal sample F3, 1 uM GUSi): 55.0638% and 49.4467% and 55.1636%; % Inhibition ([4]; human fecal sample F3, 10 uM GUSi): 63.3658% and 70.4225% and 80.8879%; % Inhibition ([4]; human fecal sample M1, 0.1 uM GUSi): 43.1579% and 25.7515% and 43.5009%; % Inhibition ([4]; human fecal sample M1, 1 uM GUSi): 77.2204% and 69.1166% and 76.6073%; % Inhibition ([4]; human fecal sample M1, 10 uM GUSi): 87.4836% and 92.1188% and 91.6683%; % Inhibition ([4]; human fecal sample M3, 1 uM GUSi): 44.8187% and 47.2169% and 47.9485%; % Inhibition ([4]; human fecal sample M3, 10 uM GUSi): 84.9872% and 79.6161% and 93.8804%; effect on body weight [5, 12]: little effects; effect on colon histology [5, 12]: little effects; effect on colon length [5, 12]: little effects; effect on colonic or systematic inflammation [5, 12]: little effects; IFN (Fig.S12e) [5, 13]: 0; IL-6 (Fig.S12e) [5, 13]: 13.43 and 0 and 6.45; IL-10 (Fig.S12e) [5, 13]: 37.4 and 0 and 198.61 and 44.6 and 23.86; IL-12P70 (Fig.S12e) [5, 13]: 25.71 and 0 and 88.12; MCP-1 (Fig.S12e) [5, 13]: 48.03 and 146.49 and 57.21 and 61.62 and 184.9 and 179.76 and 331.3 and 143.93; TNF (Fig.S12e) [5, 13]: 60.3 and 20.04 and 10.87 and 8.58 and 0 and 48.52 and 31.51 and 26.47; ifn (Fig.S12d) [5, 14]: 0.5314 and 0.5552 and 0.6727 and 2.025 and 1.546 and 2.975 and 0.7505 and 0.9593; il6 (Fig.S12d) [5, 14]: 0.9822 and 0.6373 and 0.485 and 1.527 and 0.9215 and 0.6364 and 1.1212 and 1.239; il17 (Fig.S12d) [5, 14]: 1.45 and 0.9375 and 0.5532 and 1.296 and 0.6529 and 0.514 and 0.9732 and 1.7301; il-1b (Fig.S12d) [5, 14]: 1.675 and 3.673 and 1.563 and 0.709 and 1.249 and 2.221 and 3.587 and 1.198; il-10 (Fig.S12d) [5, 14]: 1.7121 and 1.046 and 0.8638 and 1.378 and 1.892 and 1.921 and 0.8229 and 0.4425; il-23 (Fig.S12d) [5, 14]: 1.384 and 0.7725 and 0.7614 and 1.398 and 2.3746 and 0.7478 and 0.414 and 0.4606; mcp1 (Fig.S12d) [5, 14]: 1.246 and 0.6949 and 0.7972 and 1.205 and 1.387 and 0.8717 and 0.5743 and 0.5267; tlr-4 (Fig.S12d) [5, 14]: 1.193 and 1.155 and 1.078 and 1.23 and 1.258 and 1.02 and 0.5994 and 0.6478; tnf (Fig.S12d) [5, 14]: 0.9505 and 1.516 and 0.4248 and 0.7567 and 1.942 and 2.3131 and 2.563 and 2.05
